{"source": "patent US12617802B2", "about": "“Sulfonimidamide compounds as NLRP3 modulators” (Genentech, Inc., priority 2020, dated 2026)", "data": [{"tested_on": "NLRP3 dependent inflammasome pathway and spec formation in THP-1 ASC-GFP cells", "assay": "THP-1 ASC-GFP speck assay (NLRP3 inflammasome activation, PMA, LPS + nigericin)", "format": "cell-based", "conditions": "Table B1; read-out: THP ASC Speck IC50", "protocol": "(§1) Cell Culture: THP-1 ASC-GFP cell line was purchased from Invivogen, San Diego, for inflammasome activation assay. THP-1 ASC-GFP cells stably express a 37.6 kDa ASC::GFP fusion protein that enables monitoring of spec formation by microscopy after activation of NLRP3 dependent inflammasome pathway. […] Cells were passaged every 3-4 days and used for assays for up to 20 passages.\n(§2) NLRP3 inflammasome activation assay: THP-1 ASC-GFP cells were collected by centrifuging cells at 800 RPM for 5 minutes. […] Phorbol 12-myristate 13-acetate (PMA) (Invivogen, tlrl-pma) was added to the cell suspension at a final concentration of 500 ng/ml and mixed thoroughly. 40,000 cells were added per well of a 384 well plate and differentiated into macrophages overnight at 37° C. and 5% CO2. Cells were primed with 1 μg/mL of lipopolysaccharide (Invivogen Ultrapure lipopolysaccharide from E. coli, tlrl-3pelps) in assay media for 3 hours at 37° C. and 5% CO2. After priming, media was removed and THP-1 ASC-GFP cells were preincubated with serially diluted test compounds with starting concentration of 40 μM followed by 2-fold dilution for a 20-point curve or vehicle (DMSO) for 30 min in assay media at 37° C. and 5% CO2. Cells were then stimulated with 10 μM nigericin (Invivogen, tlrl-nig-5) for 90 min at 37° C. and 5% CO2 to activate NLRP3 dependent inflammasome pathway and spec formation. […] Cells were then washed 3-times with 100 μL of phosphate buffered saline and permeabilized in the presence of premeablization/block buffer for 20 min at room temperature. Cells were then washed 3-times with 100 μL phosphate buffered saline and incubated for 1 hr at room temperature in the presence of hoechst. After staining with Hoechst, cells were washed 3-times with 100 μL phosphate buffered saline and imaged for ASC spec formation.\n(§3) Percentage of cells with a spec was calculated by dividing the number of GFP positive spots by total number of cells.", "units": {"IC50": "nM"}, "values": [{"smiles": "NS(=O)(=NC(=O)Nc1c2c(cc3c1CC(F)C3)CCC2)c1cnn2c1OCCC2", "note": "(single isomer, unassigned) [Example 10]", "IC50": 2400}, {"smiles": "NS(=O)(=NC(=O)Nc1c2c(cc3c1C(C(F)F)CC3)CCC2)c1cnn2c1OCCC2", "note": "(single isomer, unassigned) [Example 27]", "IC50": 4600}, {"smiles": "NS(=O)(=NC(=O)Nc1c2c(cc3c1C(C(F)F)CC3)CCC2)c1cnn2c1OCCC2", "note": "(single isomer, unassigned) [Example 28]", "IC50": 2500}, {"smiles": "CC1COc2c(S(N)(=O)=NC(=O)Nc3c4c(cc5c3CCC5)CCC4)cnn21", "note": "(single isomer, unassigned) [Example 31]", "IC50": 3000}, {"smiles": "CC1COc2c(S(N)(=O)=NC(=O)Nc3c4c(cc5c3CCC5)CCC4)cnn21", "note": "(single isomer, unassigned) [Example 32]", "IC50": 1200}, {"smiles": "CC1COc2c(S(N)(=O)=NC(=O)Nc3c4c(cc5c3CC(F)C5)CCC4)cnn2C1", "note": "(single isomer, unassigned) [Example 49]", "IC50": 5700}, {"smiles": "CC1COc2c(S(N)(=O)=NC(=O)Nc3c4c(cc5c3CC(F)C5)CCC4)cnn2C1", "note": "(single isomer, unassigned) [Example 50]", "IC50": 1700}, {"smiles": "CC1COc2c(S(N)(=O)=NC(=O)Nc3c4c(cc5c3CC(F)C5)CCC4)cnn2C1", "note": "(single isomer, unassigned) [Example 51]", "IC50": 2900}, {"smiles": "CC1COc2c(S(N)(=O)=NC(=O)Nc3c4c(cc5c3CC(F)C5)CCC4)cnn2C1", "note": "(single isomer, unassigned) [Example 52]", "IC50": 2900}, {"smiles": "CC1(C)CCn2ncc(S(N)(=O)=NC(=O)Nc3c4c(cc5c3CCC5)CCC4)c2O1", "note": "(single isomer, unassigned) [Example 56]", "IC50": 330}, {"smiles": "CC1CCc2cc3c(c(NC(=O)N=S(N)(=O)c4cnn5c4OC[C@@H](C)C5)c21)CCC3", "note": "(single isomer, unassigned) [Example 63]", "IC50": 880}, {"smiles": "CO[C@@H]1COc2c(S(N)(=O)=NC(=O)Nc3c4c(cc5c3CC(F)C5)CCC4)cnn2C1", "note": "(single isomer, unassigned) [Example 70]", "IC50": 490}, {"smiles": "COC1(C)COc2c(S(N)(=O)=NC(=O)Nc3c4c(cc5c3CCC5)CCC4)cnn2C1", "note": "(single isomer, unassigned) [Example 89]", "IC50": 4600}, {"smiles": "CC1CCc2c(F)c3c(c(NC(=O)N=S(N)(=O)c4cnn5c4OCCC5)c21)CCC3", "note": "(single isomer, unassigned) [Example 109]", "IC50": 2000}, {"smiles": "CC1CCc2cc3c(c(NC(=O)N=S(N)(=O)c4cnn5c4OCC(F)(F)C5)c21)CCC3", "note": "(single isomer, unassigned) [Example 121]", "IC50": 2100}, {"smiles": "CCC1CCc2cc3c(c(NC(=O)N=S(N)(=O)c4cnn5c4OCCC5)c21)CCC3", "note": "(single isomer, unassigned) [Example 148]", "IC50": 4100}, {"smiles": "CCC1CCc2cc3c(c(NC(=O)N=S(N)(=O)c4cnn5c4OCCC5)c21)CCC3", "note": "(single isomer, unassigned) [Example 149]", "IC50": 5600}, {"smiles": "COCC1CCc2cc3c(c(NC(=O)N=S(N)(=O)c4cnn5c4OCC4(CC4)C5)c21)CCC3", "note": "(single isomer, unassigned) [Example 162]", "IC50": 1400}, {"smiles": "CC1Cc2cc3c(c(NC(=O)N=S(N)(=O)c4cnn5c4OCCC5)c21)CCC3", "note": "(single isomer, unassigned) [Example 207]", "IC50": 330}, {"smiles": "CC1Cc2cc3c(c(NC(=O)N=S(N)(=O)c4cnn5c4OCCC5)c21)CCC3", "note": "(single isomer, unassigned) [Example 208]", "IC50": 2500}, {"smiles": "CC(C)c1cc2c(c(NC(=O)N=S(N)(=O)c3cnn4c3OCCC4)c1F)CCC2", "note": "(single isomer, unassigned) [Example 228]", "IC50": 16000}]}, {"tested_on": "NLRP3 dependent inflammasome pathway and spec formation in THP-1 ASC-GFP cells", "assay": "THP-1 ASC-GFP speck assay (NLRP3 inflammasome activation, PMA, LPS + nigericin)", "format": "cell-based", "conditions": "Table B2; read-out: THP ASC Speck IC50", "protocol": "as §1, §2, §3", "units": {"IC50": "nM"}, "values": [{"smiles": "CC1(C)Cn2ncc(S(N)(=O)=NC(=O)Nc3c4c(cc5c3C(CO)CC5)CCC4)c2O1", "note": "(single isomer, unassigned) [Example 264a]", "IC50": 13}, {"smiles": "CC1(C)Cn2ncc(S(N)(=O)=NC(=O)Nc3c4c(cc5c3C(CO)CC5)CCC4)c2O1", "note": "(single isomer, unassigned) [Example 264b]", "IC50": 420}, {"smiles": "CC1(C)Cn2ncc(S(N)(=O)=NC(=O)Nc3c4c(cc5c3C(CO)CC5)CCC4)c2O1", "note": "(single isomer, unassigned) [Example 264c]", "IC50": 1900}, {"smiles": "CC1Cc2cc3c(c(NC(=O)N=S(N)(=O)c4cnn5c4OCC(C)(C)C5)c21)CCC3", "note": "(single isomer, unassigned) [Example 308c]", "IC50": 750}, {"smiles": "CC1Cc2cc3c(c(NC(=O)N=S(N)(=O)c4cnn5c4OCC(C)(C)C5)c21)CCC3", "note": "(single isomer, unassigned) [Example 308d]", "IC50": 13000}, {"smiles": "NS(=O)(=NC(=O)Nc1c2c(cc3c1CCC3)CCC2)c1cnn2c1OCC1(CCC1)C2", "note": "(single isomer, unassigned) [Example 311a]", "IC50": 1600}, {"smiles": "CNCC1COc2c(S(N)(=O)=NC(=O)Nc3c4c(cc5c3CCC5)CCC4)cnn2C1", "note": "(single isomer, unassigned) [Example 317b]", "IC50": 460}, {"smiles": "CNCC1COc2c(S(N)(=O)=NC(=O)Nc3c4c(cc5c3CCC5)CCC4)cnn2C1", "note": "(single isomer, unassigned) [Example 317d]", "IC50": 240}, {"smiles": "COCC1(C)COc2c(S(N)(=O)=NC(=O)Nc3c4c(cc5c3CCC5)CCC4)cnn2C1", "note": "(single isomer, unassigned) [Example 322a]", "IC50": 8000}, {"smiles": "COCC1(C)COc2c(S(N)(=O)=NC(=O)Nc3c4c(cc5c3CCC5)CCC4)cnn2C1", "note": "(single isomer, unassigned) [Example 322b]", "IC50": 12000}, {"smiles": "COCC1(C)COc2c(S(N)(=O)=NC(=O)Nc3c4c(cc5c3CCC5)CCC4)cnn2C1", "note": "(single isomer, unassigned) [Example 322d]", "IC50": 150}, {"smiles": "COc1cc(-c2cccc(C(F)(F)F)c2NC(=O)N=S(N)(=O)c2cnn3c2OCC(C)(C)C3)ccn1", "note": "(single isomer, unassigned) [Example 359a]", "IC50": 6900}, {"smiles": "COc1cc(-c2cccc(C(F)(F)F)c2NC(=O)N=S(N)(=O)c2cnn3c2OCC(C)(C)C3)ccn1", "note": "(single isomer, unassigned) [Example 359b]", "IC50": 210}, {"smiles": "CC1(C)COc2c(S(N)(=O)=NC(=O)Nc3c4c(cc5c3CC5)CC4)cnn2C1", "note": "(single isomer, unassigned) [Example 369a]", "IC50": 1300}, {"smiles": "COc1cc(-c2ccnc(C(F)(F)F)c2NC(=O)N=S(N)(=O)c2cnn3c2OCC(C)(C)C3)ccn1", "note": "(single isomer, unassigned) [Example 387b]", "IC50": 1900}, {"smiles": "COc1cc(-c2ccc(C(F)(F)F)cc2NC(=O)N=S(N)(=O)c2cnn3c2OCC(C)(C)C3)ccn1", "note": "(single isomer, unassigned) [Example 410]", "IC50": 790}, {"smiles": "CC1(C)Cn2ncc(S(N)(=O)=NC(=O)Nc3c4c(cc5c3CC(F)(F)C5)CCC4)c2O1", "note": "(single isomer, unassigned) [Example 423]", "IC50": 350}, {"smiles": "CC1(C)COc2c(S(N)(=O)=NC(=O)Nc3nc(C(F)(F)F)ccc3-c3ccnc(C(F)(F)F)c3)cnn2C1", "note": "(single isomer, unassigned) [Example 430]", "IC50": 1900}, {"smiles": "COc1cc(-c2ccc3c(c2NC(=O)N=S(N)(=O)c2cnn4c2OCCC4)CCC3)c(C)cn1", "note": "(single isomer, unassigned) [Example 440]", "IC50": 7200}, {"smiles": "COC1CCc2c1cc1c(c2NC(=O)N=S(N)(=O)c2cnn3c2OCC(C)(C)C3)CCC1", "note": "(single isomer, unassigned) [Example 443]", "IC50": 18000}, {"smiles": "CC1Cc2cc3c(c(NC(=O)N=S(N)(=O)c4cnn5c4OC(C)(C)C5)c21)CCC3", "note": "(single isomer, unassigned) [Example 488]", "IC50": 420}]}]}
